The nature of data set [1]: Rat pharmacokinetics, single intramuscular injection. It counts as in vivo, Male Wistar Han rats. The conditions noted are these: single IM dose 20 mg/kg, suspension 10 mg/mL; EFdA in blood, FIG. 2 and 3. On the procedure: The pharmacokinetics of Compounds 6 and 21 after a single intramuscular (IM) injection were evaluated in Male Wistar Han rats. The test compound was suspended in a 2% P407, 2% PEG3350, 3.5% Mannitol formulation at 10 mg/mL concentration. A single dose of 20 mg/kg of test compound was injected (2 mL/kg) IM into the right gastrocnemius muscle (n=3). Blood samples were collected via a lateral tail vein at the following time points: Day 1 [30 min, 1 h, 3 h, 5 h, 7 h], Days 2-5, Days 7, 10, 14, 17, 21, 24, 28, 31, 35, 38, 42, 45, 49, 52, 56, 59, 63, 66 and 70, etc. To evaluate test compound and EFdA concentrations, approximately 150 μL of blood was collected into a NaFL/Na2EDTA tube. Exactly 150 μL of blood was then pipetted into a new tube, mixed with 150 μL of 100 mM ammonium acetate pH4, (some of the prodrugs required mixing with 1.5 μL of FA as stabilizer), vortexed, immediately frozen on dry ice and stored at −80° C. until analysis. […] The supernatants were then analyzed by UPLC/MS-MS (Triple Quad™ 6500+). Pharmacokinetic parameters were evaluated using a non-compartmental model of the non-compartmental analysis tool, Pharsight Phoenix WinNonlin® 6.4 software.

The test system of data set [2] is PSV with methionine 184 to valine (M184V) substitution in the reverse transcriptase gene. The experiment in a line: microbe, parasite or virus in culture. It counts as cell-based, HIV. Conditions: Human immunodeficiency virus 1, 72 h, read-out: M184V IC50.
The test system of data set [3] is wild-type NL4-3 replication defective pseudovirus (PSV). The experiment in a line: microbe, parasite or virus in culture. Format: cell-based. Conditions: NL43, 72 h, U373 cells expressing human CD4 and CXCR4 or CCR5, luciferase signal after 3 days, mean IC50, read-out: WT IC50.

Each structure is given as a SMILES string.

Turning to `C#C[C@]1(CO)O[C@@H](n2cnc3c(N)nc(F)nc32)C[C@@H]1OC(=O)CC(C)(C)c1c(C)cc(C)cc1OC(C)=O` [Example 21, (2R,3S,5R)-5-(6-amino-2-fluoro-9H-purin-9-yl)-2-ethynyl-2-(hydroxymethyl)tetrahydrofuran-3-yl 3-(2-acetoxy-4,6-dimethylphenyl)-3-methylbutanoate], the “sustained exposure to EFdA out to” value in data set [1] was “does not afford a sustained release profile”.

Turning to `C#C[C@]1(CO)O[C@@H](n2cnc3c(N)nc(F)nc32)C[C@@H]1OC(=O)CCCCCCCCCCCCC` [Example 2, (2R,3S,5R)-5-(6-amino-2-fluoro-9H-purin-9-yl)-2-ethynyl-2-(hydroxymethyl)tetrahydrofuran-3-yl tetradecanoate], the IC50 came out at 7.8 nM in data set [2] and 1.5 nM in data set [3].

Regarding `C#C[C@]1(CO)O[C@@H](n2cnc3c(NC(=O)OCC)nc(F)nc32)C[C@@H]1OC(=O)CCCCCCCCC` [Example 8, (2R,3S,5R)-5-(6-((ethoxycarbonyl)amino)-2-fluoro-9H-purin-9-yl)-2-ethynyl-2-(hydroxymethyl)tetrahydrofuran-3-yl decanoate], the IC50 in data set [2] is 460 nM; in data set [3], 165 nM.

For orientation: IC50 means the point on the concentration scale where inhibition reaches its midpoint.
